The test system of experiment [1] is ABCA1 mRNA in THP-1 cells. Put plainly: ABCA1 bDNA assay (ABCA1 mRNA induction). To be noted: Homo sapiens; for EC50: ABCA1 mRNA induction, usually 18-24 hrs; for Emax at 3 µM: relative to MX-6054, read-out: ABCA1 % max MX-6054. Type of experiment: cell-based. The procedure: THP-1 cells, a human monocytic cell line, were obtained from ATCC and maintained in RPMI (Gibco) supplemented with 10% fetal bovine serum (Gibco), 2mM L-glutamine and 1% antibiotic-antimycotic in 5% CO2 at 37° C. For ABCA1 mRNA induction assays, the cells were pelleted and resuspended in RPMI supplemented with 0.5% charcoal treated serum (Hyclone), 2 mM glutamine and 1% antibiotic-antimycotic. The cells were plated at a density of 40,000 cells/90 μl and incubated as above for at least 4 hours before the initiation of treatments. Compounds were prepared as 10 mM stocks in DMSO. For treatments, the compounds were diluted in medium and 10 μl of 10× stocks were added to the cells at a final concentration 0.1% DMSO. The cells were incubated for the desired amount of time (usually 18-24 hrs) and then lyzed with 50 μl of Quantigene HV bDNA lysis buffer which also contained the ABCA1 bDNA probes (probe sequences shown below): […]

For experiment [2], the target named is T1, RXR ligand binding domain (accession number X52773) fused with the DNA binding domain of yeast GAL4 (Homo sapiens, UniProt P19793).
T1 construct: expressed in transfected cells; host or cells: HEK293
T1 sequence (P19793 227-458 limits assumed): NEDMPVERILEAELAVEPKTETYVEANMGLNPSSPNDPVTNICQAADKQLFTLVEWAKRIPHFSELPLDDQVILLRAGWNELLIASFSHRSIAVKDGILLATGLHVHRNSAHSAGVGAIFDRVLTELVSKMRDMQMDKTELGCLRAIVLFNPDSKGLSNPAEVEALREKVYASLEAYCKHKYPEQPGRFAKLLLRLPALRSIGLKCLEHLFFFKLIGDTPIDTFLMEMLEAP
Put plainly: RXR co-transfection assay (GAL4-LBD luciferase reporter in HEK293 cells). Type of experiment: cell-based. Conditions: 16-18 hours. Here is the method: The nucleic acid sequence from 676-1464bp (accession number X52773) encoding the ligand binding domains was subcloned into the pM vector (BD Biosciences Clontech, Palo Alto, Calif.) and were fused with the DNA binding domain of yeast GAL4. HEK293 cells were cultured in DMEM/F12 medium supplemented with 10% FBS and 1% 1-glutamine (growth medium). Cells were seeded at a density of 5-10×10^6 cells in 50 ml of growth medium and left overnight, The medium was removed and the cells were washed with 15 ml of OptiMEM serum free medium (Invitrogen Corp). The cells were transfected using OptiMEM serum free medium and DMRIE transfection reagent (Invitrogen Corp). Approximately 10-30 ng of DNA for the different receptors and 5-10 ng of the luciferase reporter (1:1 ratio for RAR and 4:1 ratio for RXR of receptor DNA:reporter DNA) were gently mixed with 51 μl of DMRIE reagent in a total volume of 17 ml of OptiMEM medium. Eighteen hours after transfection, the cells were washed once with growth medium and then incubated for 6 hrs in 30 ml of growth medium. The cells were then trypsinized, and reseeded at a density of 50,000 per well in 96 well plates and left overnight. The medium was replaced with 90 μl of medium containing DMEM/F12 supplemented with 0.5% charcoal-treated FBS (HyClone; Logan, Utah) and 1% glutamine. Compounds or vehicle were added in 10 μl of 10× concentration of compound or vehicle (0.1% dimethyl sulfoxide). The cells were treated for 16-18 hours, lysed and assayed for luciferase activity using the Steady Gio luciferase assay kit (Promega, Madison, Wis.).

This is an account of results in US7723326B2, “Heterocyclic amide derivatives as RXR agonists for the treatment of dyslipidemia, hypercholesterolemia and diabetes” (Janssen Pharmaceutica N.V., priority 2005, dated 2010).

With `CCN1C(=O)C(C)(C)Oc2cc(C)c(-c3cc(CCC(=O)O)ccc3OC(F)(F)F)cc21` [Compound 12, 3-[3-(4-Ethyl-2,2,7-trimethyl-3-oxo-3,4-dihydro-2H-benzo[1,4]oxazin-6-yl)-4-trifluoromethoxy-phenyl]-propionic acid], the EC50 is above 2000 nM in experiment [1] and 709 nM in experiment [2].
The matching figures for `CCN1C(=O)C(C)(C)Oc2cc(C)c(-c3cc(/C=C/C(=O)O)ccc3OCC(F)(F)F)cc21` [Compound 2, 3-[3-(4-Ethyl-2,2,7-trimethyl-3-oxo-3,4-dihydro-2H-benzo[1,4]oxazin-6-yl)-4-(2,2,2-trifluoro-ethoxy)-phenyl]-acrylic acid]: above 2000 nM and above 2000 nM.
As for `CCn1c(=O)c(=O)n(CC)c2cc(-c3cc([C@@H]4C[C@H]4C(=O)O)ccc3OC(F)(F)F)c(C)cc21` (racemic) [Compound 26, 2-[3-(1,4-Diethyl-7-methyl-2,3-dioxo-1,2,3,4-tetrahydro-quinoxalin-6-yl)-4-trifluoromethoxy-phenyl]-cyclopropanecarboxylic acid], the EC50 in experiment [1] and in experiment [2] was above 2000 nM in each case.
As for `Cc1cc2c(cc1-c1cc(C3CC3C(=O)O)ccc1OC(F)(F)F)N(C(C)C)C(=O)C(C)(C)O2` (racemic) [Compound 23, 2-[3-(4-Isopropyl-2,2,7-trimethyl-3-oxo-3,4-dihydro-2H-benzo[1,4]oxazin-6-yl)-4-trifluoromethoxy-phenyl]-cyclopropanecarboxylic acid], in experiment [1], the Emax at 3 µM amounted to 64.1% and the concentration for a half-maximal effect (EC50) was above 2000 nM. This compound registered an EC50 in experiment [2] of 719 nM.
The matching figures for `CCN1C(=O)C(C)(C)Oc2cc(C)c(-c3cc([C@@H]4C[C@H]4C(=O)O)ccc3OC(F)(F)F)cc21` (racemic) [Compound 22, 2-[3-(4-Ethyl-2,2,7-trimethyl-3-oxo-3,4-dihydro-2H-benzo[1,4]oxazin-6-yl)-4-trifluoromethoxy-phenyl]-cyclopropanecarboxylic acid]: 28.6%, above 2000 nM and 385 nM.
